Source: patent US20260242391A1 (priority 2023, published 2026)

What was measured:
HL-60 = HL-60 differentiation potency; format: cell-based; conditions: Homo sapiens
in vitro = conditions: human

| Compound | EC50 (HL-60) [µM] | IC50 (in vitro) [µM] |
| --- | --- | --- |
| CC(C)C(C(=O)O)c1ccc(O[C@H]2O[C@@H]3O[C@@]4(C)CC[C@H]5[C@H](C)CC[C@@H]([C@H]2C)[C@@]35OO4)cc1 (stereo partly drawn) [Compound 146, 3-methyl-2-(4-(((3R,5aS,6R,8aS, 9R,10S,12R, 12aR)-3,6,9-trimethyldeca-hydro-12H-3,12-epoxy[1,2]dioxepino[4,3-i]isochromen-10-yl)oxy)phenyl) butanoic acid] | 0.0596 | 0.8 |
| C[C@H]1[C@@H](OC[C@H]2C[C@@H](C(=O)O)C[C@@H](C(=O)O)C2)O[C@@H]2O[C@@]3(C)CC[C@H]4[C@H](C)CC[C@@H]1[C@@]24OO3 [Compound 147, (1R,3S,5r)-5-((((3R,5aS,6R,8aS, 9R,10S,12R, 12aR)-3,6,9-trimethyldeca-hydro-12H-3,12-epoxy[1,2]dioxepino[4,3-i]isochromen-10-yl)oxy)methyl) cyclohexane-1,3-dicarboxylic acid] | > 20 | > 20 |
| C[C@H]1[C@@H](OCC(=O)N2CCC(C(=O)O)CC2)O[C@@H]2O[C@@]3(C)CC[C@H]4[C@H](C)CC[C@@H]1[C@@]24OO3 [Compound 148, 1-(2-(((3R,5aS,6R,8aS, 9R,10S,12R, 12aR)-3,6,9-trimethyldeca-hydro-12H-3,12-epoxy[1,2]dioxepino[4,3-i]isochromen-10-yl)oxy)acetyl) piperidine-4-carboxylic acid] | 6.87 | > 20 |
| C[C@H]1[C@@H](Oc2ccc(C(=O)N3CC(C(=O)O)C3)cc2)O[C@@H]2O[C@@]3(C)CC[C@H]4[C@H](C)CC[C@@H]1[C@@]24OO3 [Compound 149, 1-(4-(((3R,5aS,6R,8aS, 9R,10S,12R, 12aR)-3,6,9-trimethyldeca-hydro-12H-3,12-epoxy[1,2]dioxepino[4,3-i]isochromen-10-yl)oxy)benzoyl) azetidine-3-carboxylic acid] | 1.24 | > 20 |
| C[C@H]1[C@@H](OCC(=O)N2C[C@H](F)C[C@H]2C(=O)O)O[C@@H]2O[C@@]3(C)CC[C@H]4[C@H](C)CC[C@@H]1[C@@]24OO3 [Compound 150, (2S,4R)-4-fluoro-1-(2-(((3R,5aS,6R,8aS, 9R,10S,12R, 12aR)-3,6,9-trimethyldeca-hydro-12H-3,12-epoxy[1,2]dioxepino[4,3-i]isochromen-10-yl)oxy)acetyl) pyrrolidine-2-carboxylic acid] | > 20 | > 20 |
| C[C@H]1[C@@H](OCC(=O)N2C[C@H]3[C@@H]([C@H]2C(=O)O)C3(C)C)O[C@@H]2O[C@@]3(C)CC[C@H]4[C@H](C)CC[C@@H]1[C@@]24OO3 [Compound 151, (1R,2S,5S)-6,6-dimethyl-3-(2-(((3R,5aS,6R,8aS, 9R,10S,12R, 12aR)-3,6,9-trimethyldeca-hydro-12H-3,12-epoxy[1,2]dioxepino[4,3-i]isochromen-10-yl)oxy)acetyl)-3-azabicyclo[3.1.0] hexane-2-carboxylic acid] | 1.57 | > 20 |
| C[C@H]1[C@@H](OCC(=O)N[C@H]2CC[C@@H](C(=O)O)C2)O[C@@H]2O[C@@]3(C)CC[C@H]4[C@H](C)CC[C@@H]1[C@@]24OO3 [Compound 152, (1R,3S)-3-(2-(((3R,5aS,6R, 8aS,9R,10S,12R, 12aR)-3,6,9-trimethyldeca-hydro-12H-3,12-epoxy[1,2]dioxepino[4,3-i]isochromen-10-yl)oxy)acetamido) cyclopentane-1-carboxylic acid] | 8.48 | > 20 |
| C[C@H]1[C@@H](OC[C@H]2CC[C@@H](C(=O)NC(C)(C)C)CC2)O[C@@H]2O[C@@]3(C)CC[C@H]4[C@H](C)CC[C@@H]1[C@@]24OO3 [Compound 153, (1R,4s)-N-(tert-butyl)-4-((((3R,5aS,6R,8aS, 9R,10S,12R, 12aR)-3,6,9-trimethyldeca-hydro-12H-3,12-epoxy[1,2]dioxepino[4,3-i]isochromen-10-yl)oxy)methyl) cyclohexane-1-carboxamide] | 0.0973 | 0.54 |
| C[C@H]1[C@@H](Oc2ccc3c(c2)OC(C(=O)O)C3)O[C@@H]2O[C@@]3(C)CC[C@H]4[C@H](C)CC[C@@H]1[C@@]24OO3 (stereo partly drawn) [Compound 154, 6-(((3R,5aS,6R,8aS, 9R,10S,12R, 12aR)-3,6,9-trimethyldeca-hydro-12H-3,12-epoxy[1,2]dioxepino[4,3-i]isochromen-10-yl)oxy)-2,3-dihydrobenzo-furan-2-carboxylic acid] | 0.0708 | 9 |
| C[C@H]1[C@@H](OCc2ccc(C(=O)O)c(C(F)(F)F)c2)O[C@@H]2O[C@@]3(C)CC[C@H]4[C@H](C)CC[C@@H]1[C@@]24OO3 [Compound 155, 2-(trifluoromethyl)-4-((((3R,5aS,6R, 8aS,9R,10S,12R, 12aR)-3,6,9-trimethyldeca-hydro-12H-3,12-epoxy[1,2]dioxepino[4,3-i]isochromen-10-yl)oxy)methyl) benzoic acid] | 0.175 | > 20 |
| C[C@H]1[C@@H](OC[C@H]2CC[C@@H](CO)CC2)O[C@@H]2O[C@@]3(C)CC[C@H]4[C@H](C)CC[C@@H]1[C@@]24OO3 [Compound 156, ((1R,4s)-4-((((3R,5aS,6R, 8aS,9R,10S,12R, 12aR)-3,6,9-trimethyldeca-hydro-12H-3,12-epoxy[1,2]dioxepino[4,3-i]isochromen-10-yl)oxy)methyl)cyclohexyl) methanol] | 0.0766 | 0.27 |
| C[C@H]1[C@@H](OC2C[C@H]3CC(C(=O)O)C[C@@H]23)O[C@@H]2O[C@@]3(C)CC[C@H]4[C@H](C)CC[C@@H]1[C@@]24OO3 (stereo partly drawn) [Compound 157, (1R,5R)-6-(((3R,5aS,6R,8aS, 9R,10S,12R, 12aR)-3,6,9-trimethyldeca-hydro-12H-3,12-epoxy[1,2]dioxepino[4,3-i]isochromen-10-yl)oxy)bicyclo [3.2.0]heptane-3-carboxylic acid] | 0.797 | > 20 |
| C[C@H]1[C@@H](OC2C3CC(C(=O)O)CC32)O[C@@H]2O[C@@]3(C)CC[C@H]4[C@H](C)CC[C@@H]1[C@@]24OO3 (stereo partly drawn) [Compound 158, 6-(((3R,5aS,6R,8aS, 9R,10S,12R, 12aR)-3,6,9-trimethyldeca-hydro-12H-3,12-epoxy[1,2]dioxepino[4,3-i]isochromen-10-yl)oxy)bicyclo [3.1.0]hexane-3-carboxylic acid] | 4.25 | > 20 |
| C[C@H]1[C@H](OCC(=O)N2C[C@H](F)C[C@H]2C(=O)O)O[C@@H]2O[C@@]3(C)CC[C@H]4[C@H](C)CC[C@@H]1[C@@]24OO3 [Compound 159, (2S,4R)-4-fluoro-1-(2-(((3R,5aS,6R,8aS, 9R,10R,12R, 12aR)-3,6,9-trimethyldeca-hydro-12H-3,12-epoxy[1,2]dioxepino[4,3-i]isochromen-10-yl)oxy)acetyl) pyrrolidine-2-carboxylic acid] | > 20 | > 20 |
| C[C@H]1[C@@H](OCC(=O)N2C[C@@H](O)C[C@H]2C(=O)O)O[C@@H]2O[C@@]3(C)CC[C@H]4[C@H](C)CC[C@@H]1[C@@]24OO3 [Compound 160, (2S,4S)-4-hydroxy-1-(2-(((3R,5aS,6R,8aS, 9R,10S,12R, 12aR)-3,6,9-trimethyldeca-hydro-12H-3,12-epoxy[1,2]dioxepino[4,3-i]isochromen-10-yl)oxy)acetyl) pyrrolidine-2-carboxylic acid] | > 20 | > 20 |
| C[C@H]1[C@@H](OCC(=O)N2CC[C@@H](C(=O)O)C2)O[C@@H]2O[C@@]3(C)CC[C@H]4[C@H](C)CC[C@@H]1[C@@]24OO3 [Compound 161, (R)-1-(2-(((3R,5aS,6R,8aS, 9R,10S,12R, 12aR)-3,6,9-trimethyldeca-hydro-12H-3,12-epoxy[1,2]dioxepino[4,3-i]isochromen-10-yl)oxy)acetyl) pyrrolidine-3-carboxylic acid] | > 20 | > 20 |
| C[C@H]1[C@H](OCC(=O)N2C[C@H]3[C@@H]([C@H]2C(=O)O)C3(C)C)O[C@@H]2O[C@@]3(C)CC[C@H]4[C@H](C)CC[C@@H]1[C@@]24OO3 [Compound 162, (1R,2S,5S)-6,6-dimethyl-3-(2-(((3R,5aS,6R,8aS, 9R,10R,12R, 12aR)-3,6,9-trimethyldeca-hydro-12H-3,12-epoxy[1,2]dioxepino[4,3-i]isochromen-10-yl)oxy)acetyl)-3-azabicyclo[3.1.0] hexane-2-carboxylic acid] | 5.75 | > 20 |
| C[C@H]1[C@H](OCC(=O)N2CC[C@@H](C(=O)O)C2)O[C@@H]2O[C@@]3(C)CC[C@H]4[C@H](C)CC[C@@H]1[C@@]24OO3 [Compound 163, (R)-1-(2-(((3R,5aS,6R,8aS, 9R,10R,12R, 12aR)-3,6,9-trimethyldeca-hydro-12H-3,12-epoxy[1,2]dioxepino[4,3-i]isochromen-10-yl)oxy)acetyl) pyrrolidine-3-carboxylic acid] | > 20 | > 20 |
| C[C@H]1[C@H](OCC(=O)N2CCC(C(=O)O)CC2)O[C@@H]2O[C@@]3(C)CC[C@H]4[C@H](C)CC[C@@H]1[C@@]24OO3 [Compound 164, 1-(2-(((3R,5aS,6R,8aS, 9R,10R,12R, 12aR)-3,6,9-trimethyldeca-hydro-12H-3,12-epoxy[1,2]dioxepino[4,3-i]isochromen-10-yl)oxy)acetyl) piperidine-4-carboxylic acid] | > 20 | > 20 |
| C[C@H]1[C@@H](OCC#Cc2ccc(C(=O)O)cc2F)O[C@@H]2O[C@@]3(C)CC[C@H]4[C@H](C)CC[C@@H]1[C@@]24OO3 [Compound 165, 3-fluoro-4-(3-(((3R,5aS,6R,8aS, 9R,10S,12R, 12aR)-3,6,9-trimethyldeca-hydro-12H-3,12-epoxy[1,2]dioxepino[4,3-i]isochromen-10-yl)oxy)prop-1-yn-1-yl) benzoic acid] | 0.0795 | 0.3 |
| C[C@H]1[C@H](OCC#Cc2ccc(C(=O)O)cc2F)O[C@@H]2O[C@@]3(C)CC[C@H]4[C@H](C)CC[C@@H]1[C@@]24OO3 [Compound 166, 3-fluoro-4-(3-(((3R,5aS,6R,8aS, 9R,10R,12R, 12aR)-3,6,9-trimethyldeca-hydro-12H-3,12-epoxy[1,2]dioxepino[4,3-i]isochromen-10-yl)oxy)prop-1-yn-1-yl)benzoic acid] | 0.0669 | 1.8 |
